Assays:
Assay type in all cases: cell-based
[1] = target: T1, ATP-dependent translocase ABCB1 (Homo sapiens, UniProt P08183); assay: Inhibition of P-gp in human NCI-H460/R cells assessed as mean fluorescence intensity of Rhodamine 123 at 20 uM (reference value: 16.96)
[2] = target: T1, ATP-dependent translocase ABCB1; assay: Inhibition of P-gp in human NCI-H460/R cells assessed as fluorescence activity ratio at 20 uM relative to control
[3] = target: T1, ATP-dependent translocase ABCB1; assay: Ratio of inhibition of P-gp in human NCI-H460/R cells assessed as mean fluorescence intensity at 20 uM relative to control

T1 sequence (P08183 whole entry): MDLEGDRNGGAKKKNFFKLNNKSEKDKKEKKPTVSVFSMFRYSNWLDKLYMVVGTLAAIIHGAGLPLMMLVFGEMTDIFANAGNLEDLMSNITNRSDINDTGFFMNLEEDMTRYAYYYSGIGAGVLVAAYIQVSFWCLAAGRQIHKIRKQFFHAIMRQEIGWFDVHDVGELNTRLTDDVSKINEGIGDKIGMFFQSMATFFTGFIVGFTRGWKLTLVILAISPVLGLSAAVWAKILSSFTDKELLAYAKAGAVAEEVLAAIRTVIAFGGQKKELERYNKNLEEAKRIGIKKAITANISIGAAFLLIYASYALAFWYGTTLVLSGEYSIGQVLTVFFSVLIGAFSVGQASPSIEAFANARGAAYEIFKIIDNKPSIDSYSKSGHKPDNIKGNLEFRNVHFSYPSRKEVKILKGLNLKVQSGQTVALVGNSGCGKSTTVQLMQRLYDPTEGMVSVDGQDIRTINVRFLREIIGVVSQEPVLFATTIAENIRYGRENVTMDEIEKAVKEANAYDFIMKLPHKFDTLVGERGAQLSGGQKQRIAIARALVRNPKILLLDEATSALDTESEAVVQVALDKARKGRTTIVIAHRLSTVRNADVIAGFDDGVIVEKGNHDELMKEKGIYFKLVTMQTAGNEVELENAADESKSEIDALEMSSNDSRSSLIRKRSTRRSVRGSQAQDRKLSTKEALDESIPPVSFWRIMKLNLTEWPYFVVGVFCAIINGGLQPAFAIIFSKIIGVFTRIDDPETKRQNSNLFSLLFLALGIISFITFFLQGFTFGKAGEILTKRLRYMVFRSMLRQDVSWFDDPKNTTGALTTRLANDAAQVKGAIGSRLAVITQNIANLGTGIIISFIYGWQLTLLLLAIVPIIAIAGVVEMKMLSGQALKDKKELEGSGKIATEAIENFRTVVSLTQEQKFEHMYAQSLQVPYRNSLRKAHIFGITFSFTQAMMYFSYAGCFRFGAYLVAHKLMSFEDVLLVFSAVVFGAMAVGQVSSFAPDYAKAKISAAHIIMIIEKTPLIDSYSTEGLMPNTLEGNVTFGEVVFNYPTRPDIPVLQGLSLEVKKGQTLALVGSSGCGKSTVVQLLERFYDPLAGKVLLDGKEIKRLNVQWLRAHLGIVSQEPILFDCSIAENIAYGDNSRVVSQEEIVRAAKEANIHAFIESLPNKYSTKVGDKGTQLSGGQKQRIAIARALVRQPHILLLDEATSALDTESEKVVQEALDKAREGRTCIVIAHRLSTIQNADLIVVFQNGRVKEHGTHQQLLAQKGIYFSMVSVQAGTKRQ

FI [1]	Ratio [2]	Ratio [3]	Compound
28.97	1.71	21.6	CC(=O)O[C@H]1C2=C(C(=O)C(OC(=O)c3ccc(Cl)cc3)=C(C(C)C)C2=O)[C@@]2(C)CCCC(C)(C)[C@@H]2[C@@H]1OC(=O)c1ccc(Cl)cc1
35.54	2.1	26.5	CC(=O)O[C@H]1C2=C(C(=O)C(OC(=O)c3ccccc3)=C(C(C)C)C2=O)[C@@]2(C)CCCC(C)(C)[C@@H]2[C@@H]1O
36.07	2.13	26.9	COc1ccc(CCN(C)CCC[C@](C#N)(c2ccc(OC)c(OC)c2)C(C)C)cc1OC [DEXVERAPAMIL]
